Reference: patent US20050037074A1, “Delayed and sustained drug release” (priority 2001, published 2005)
Like-named read-outs stand apart in the source and are kept apart here. Marks after values point to notes of the source that are not given here.

Assays:
[1] = Study 1: pharmacokinetics of 10 mg fixed dose oral HC in adrenal-insufficient patients; type: in vivo, human; details: for oral clearance / half-life: 10 mg oral, mean±S.E.M.; for Bias (AUC), % difference from healthy matched controls / Variability in AUC (C.V.) / Variability in Cmax (C.V.): Fixed 10 mg, listed as HC; for half-life: both sexes, human, serum, po, 10 mg, read-out: absorption half-life
Description: (§1) Serum was separated from blood samples immediately after collection and stored at minus 20° C. until analysis. Cortisol concentrations were measured using an ACS:180 automatic chemiluminescence system (Kiron Diagnostic Corporation, East Walpole, USA). Intra- and inter-assay coefficients of variation were less than 7.6%.
(§2) The study was carried out in two groups of adrenal-insufficient patients, and a group of healthy subjects. It was approved by the North Sheffield Local Research Ethics Committee, and all participants gave written informed consent. All patients had primary or secondary adrenal insufficiency based on a 0900 h serum cortisol level off treatment of less than 50 nmol/l. Normal controls were matched to the second group of patients for gender, age, height, weight and BSA within 10% of individual patients. Patients on oestrogen replacement were studied after having stopped oestrogen for 6 weeks.
Study 1—Pharmacokinetics of 10 mg fixed dose oral HC: Ten patients (5M, 5F, Age 32-72 yrs, BMI 21.7-35.8 kg/m^2) attended the Programmed Investigation Unit on 3 occasions. They discontinued HC replacement from noon on the day prior to the study and fasted from midnight. On the first and third occasions, the patients fasted throughout the study and, on the second occasion, they received a standard breakfast 20-30 minutes before receiving HC. On each of the 3 study days, patients received 10 mg of HC (Hydrocortone™, Merck, Sharp and Dohme) orally, between 0800-0900 h. Peripheral venous blood samples were taken immediately before dosage and at 20, 40, 50, 60, 70, 80, 90, 100, 120, 180, 240, 300 and 360 minutes after dosage; the serum was collected and stored pending assay for HC.
(§3) Kinetic analysis of the serum cortisol concentration-time profiles in the patients was carried out using the software package, P-Pharm (version 1.5, InnaPhase, France), assuming mono-exponential disposition, first-order absorption, and a baseline correction to account for any endogenous levels of cortisol. Values of oral clearance (CL/F), volume of distribution (V/F), absorption rate constant (ka) and absorption lag time (tlag) were obtained from the model fitting and were used to derive other parameter values. Bias in dosing was assessed as the percentage difference in AUC values in patients compared to the AUC of endogenous cortisol in the healthy subjects over the same time period. Variability in the features of the serum cortisol concentration-time profile in the patients was expressed as coefficient of variation (CV). The effect of food intake in Study 1 was assessed using ANOVA, accounting for repeat individual measurements in the fasting state. Body surface area, weight, height, BMI, dose of HC, gender and age were also investigated as co-variables. All statistical analyses were carried out using SPSS version 10.0 (SPSS Inc, USA).

[2] = Study 2: pharmacokinetics of individually tailored (BSA- or weight-adjusted) dose of oral HC in adrenal-insufficient patients; type: in vivo, human; details: fasted
Description: as §1, §2
Study 2—Pharmacokinetics of individually tailored dose of oral HC and testing of monitoring protocol: A further 10 patients (6M, 4F; 46-68 y; BMI 24.4-35.5 kg/m^2) were studied after receiving HC doses of 5.5 mg/m^2 BSA (to the nearest practical dose unit) at 0830 h, 1 h before breakfast. The dosage was derived from analysis of the Study 1 data to minimise inter-subject variability. A tablet cutter was used to adjust the HC dose in 2.5 mg quanta, i.e. quarters of 10 mg tablets. Thus, the absolute dose ranged from 7.5 to 12.5 mg. Blood sampling was as in Study 1. Serum concentrations of endogenous cortisol were measured in 7 healthy subjects (3M, 4F; 44-68 y; BMI 23.2-28.7 kg/m^2) at the same time points as the patients but without ingestion of HC.
Owing to the discrete nature of dose increments (multiples of 2.5 mg) 9 of the 10 patients who had taken the BSA-adjusted HC dose would still require the same dose if this had been weight-adjusted. Only one of the 10 patients needed a reduction in the HC dose from 12.5 mg to 10.0 mg to be in the nearest weight-adjusted dose range.
Therefore, in the part of our analysis that was related to body weight-adjusted doses, the serum cortisol levels of this patient were normalised to a 10.0 mg dose assuming concentration-dose proportionality.
as §3

[3] = 20 mg hydrocortisone, cited from earlier work
[4] = in vivo; cited from earlier work
ACTH = experiment: Circadian hydrocortisone infusion in a patient with congenital adrenal hyperplasia (CAH), ACTH and 17-OH progesterone; type: in vivo, human
Description: A treatment regime involves the following protocol. A patient begins a treatment regime at 0830 having taken normal medication the day before. An indwelling cannula is inserted into the patient and basal blood samples are obtained to determine basal levels of cortisol. An infusion cannula is inserted for the administration of a bolus dose of hydrocortisone. Hydrocortisone is administered by infusion once basal samples taken (Patient details: body weight=113 kg; iv bolus 24 mg at 09:00 and follow the infusion rates changed on hourly bases). Total dose for the 1st day is 34.3 mg and 21.8 mg is given by 09:00 in the 2nd day). Samples are taken from the patient periodically from 0900 to 0900 and sampled hourly for cortisol, and ACTH
Dilute 100 mg of hydrocortisone in 2 ml of water for injection (concentration 1 mg/20 ul). Give bolus injection of 24 mg hydrocortisone (480 ul or 0.48 ml of hydrocortisone) using a 1 ml insulin syringe. Flush through with normal saline. For infusion put 50 mg of hydrocortisone (1 ml) in 49 mls normal saline=1 mg/ml and the run infusion according to the protocol above.
as §1
The method comprised the infusion of a patient suffering from CAH with hydrocortisone and the measurement of cortisol and ACTH levels. The patient is a person with CAH who is currently treated with oral hydrocortisone.
The infusion protocol for the patient is described in FIG. 5. […] Concomitant with the fall in ACTH the 17-OH progesterone fell from >500 nmol/l to a nadir of 67 nmol/l.

[5] = cited from earlier work
[6] = Weight-adjusted (0.12 mg/kg), if weight adjustment was assumed

C[C@]12CCC(=O)C=C1CC[C@@H]1[C@@H]2[C@@H](O)C[C@@]2(C)[C@H]1CC[C@]2(O)C(=O)CO [hydrocortisone, Hydrocortisone]
oral clearance ([1]; fasted): 0.270 ± 0.027 L/min | oral clearance ([1]; fed): 0.226 ± 0.031 L/min | Bias (AUC), % difference from healthy matched controls ([1]; fasted): 6.3% | Variability in AUC (C.V.) ([1]; fasted): 50% | Variability in Cmax (C.V.) ([1]; fasted): 31% | Bias (AUC), % difference from healthy matched controls ([1]; fed): 24.5% | Variability in AUC (C.V.) ([1]; fed): 45% | Variability in Cmax (C.V.) ([1]; fed): 36% | half-life ([1]; fasted): 15 ± 4 min | half-life ([1]; fed): 43 ± 12 min | Bias (AUC), % difference from healthy matched controls ([2]; BSA-adjusted (5.5 mg/m^2)): 7.4% | Variability in AUC (C.V.) ([2]; BSA-adjusted (5.5 mg/m^2)): 24%** | Variability in Cmax (C.V.) ([2]; BSA-adjusted (5.5 mg/m^2)): 10%* | Variability in AUC (C.V.) [2, 6]: 22%** | Variability in Cmax (C.V.) [2, 6]: 7%* | half-life ([3]; IV administration): 1.7 h | total body clearance ([3]; IV administration): 18 L/h | volume of distribution ([3]; IV administration): 34 L | Oral bioavailablity ([3]; oral vs IV, average): 96% | time to maximum levels (absorption) ([3]; oral): 1 h | oral bioavailability [4]: 94-96% | 17-OH progesterone before the fall (ACTH; CAH patient on conventional oral hydrocortisone therapy, start of infusion): > 500 nmol/L | 17-OH progesterone nadir (ACTH; CAH patient, during hydrocortisone infusion): 67 nmol/L | morning ACTH after overnight increase in cortisol (ACTH; CAH patient, infusion simulating delayed and sustained release hydrocortisone): prevents the high morning ACTH | ACTH during the infusion (ACTH; CAH patient, iv bolus 24 mg then circadian infusion): rapidly falls | circulating cortisol bound to CBG ([5]; basal conditions, plasma): about 75% | cortisol and metabolites conjugated in the liver and excreted in the urine ([5]; in vivo): Over 90% | cortisol excreted in the urine unchanged ([5]; in vivo): less than 1%
